{"source": "patent US11273167B2", "about": "“Compositions and methods for modulating ABHD2 activity” (The Regents of the University of California, priority 2015, dated 2022)", "key": {"human CatSper channel [1]": {"target": "human CatSper channel (Homo sapiens, UniProt Q7RTX7+Q86XQ3+Q8NEC5+Q96P56)", "sequence (Q8NEC5 whole entry)": "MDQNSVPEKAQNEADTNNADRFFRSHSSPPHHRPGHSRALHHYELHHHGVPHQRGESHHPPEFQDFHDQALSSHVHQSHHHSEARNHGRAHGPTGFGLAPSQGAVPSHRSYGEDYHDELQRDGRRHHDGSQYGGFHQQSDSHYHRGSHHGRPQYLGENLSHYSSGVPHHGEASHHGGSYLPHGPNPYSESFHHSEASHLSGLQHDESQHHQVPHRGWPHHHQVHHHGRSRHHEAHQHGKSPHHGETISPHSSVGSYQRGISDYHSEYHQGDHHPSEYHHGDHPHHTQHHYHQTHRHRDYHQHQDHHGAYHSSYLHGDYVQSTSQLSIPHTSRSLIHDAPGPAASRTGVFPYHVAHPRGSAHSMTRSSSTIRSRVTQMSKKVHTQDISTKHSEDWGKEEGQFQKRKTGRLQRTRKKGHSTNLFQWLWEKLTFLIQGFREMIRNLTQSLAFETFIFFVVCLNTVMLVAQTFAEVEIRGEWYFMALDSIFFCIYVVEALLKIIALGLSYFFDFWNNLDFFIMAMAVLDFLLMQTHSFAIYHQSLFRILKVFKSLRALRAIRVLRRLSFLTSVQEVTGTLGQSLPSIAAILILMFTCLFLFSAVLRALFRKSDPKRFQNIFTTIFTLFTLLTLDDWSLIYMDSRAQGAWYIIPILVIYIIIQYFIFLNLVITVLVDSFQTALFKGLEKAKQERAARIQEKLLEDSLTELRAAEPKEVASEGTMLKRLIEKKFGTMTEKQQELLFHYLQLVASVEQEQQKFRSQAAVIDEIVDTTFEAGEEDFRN", "sequence (Q86XQ3 whole entry)": "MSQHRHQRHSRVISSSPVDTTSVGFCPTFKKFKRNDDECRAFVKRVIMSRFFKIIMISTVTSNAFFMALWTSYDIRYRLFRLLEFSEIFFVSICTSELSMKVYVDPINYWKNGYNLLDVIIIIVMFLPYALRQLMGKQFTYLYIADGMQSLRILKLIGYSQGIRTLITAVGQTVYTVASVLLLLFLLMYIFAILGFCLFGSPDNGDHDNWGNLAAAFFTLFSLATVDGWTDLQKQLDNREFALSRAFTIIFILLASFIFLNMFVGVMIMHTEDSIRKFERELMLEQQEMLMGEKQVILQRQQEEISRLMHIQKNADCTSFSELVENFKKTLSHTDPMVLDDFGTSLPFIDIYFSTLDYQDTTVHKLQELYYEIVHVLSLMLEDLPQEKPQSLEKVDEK", "sequence (Q96P56 whole entry)": "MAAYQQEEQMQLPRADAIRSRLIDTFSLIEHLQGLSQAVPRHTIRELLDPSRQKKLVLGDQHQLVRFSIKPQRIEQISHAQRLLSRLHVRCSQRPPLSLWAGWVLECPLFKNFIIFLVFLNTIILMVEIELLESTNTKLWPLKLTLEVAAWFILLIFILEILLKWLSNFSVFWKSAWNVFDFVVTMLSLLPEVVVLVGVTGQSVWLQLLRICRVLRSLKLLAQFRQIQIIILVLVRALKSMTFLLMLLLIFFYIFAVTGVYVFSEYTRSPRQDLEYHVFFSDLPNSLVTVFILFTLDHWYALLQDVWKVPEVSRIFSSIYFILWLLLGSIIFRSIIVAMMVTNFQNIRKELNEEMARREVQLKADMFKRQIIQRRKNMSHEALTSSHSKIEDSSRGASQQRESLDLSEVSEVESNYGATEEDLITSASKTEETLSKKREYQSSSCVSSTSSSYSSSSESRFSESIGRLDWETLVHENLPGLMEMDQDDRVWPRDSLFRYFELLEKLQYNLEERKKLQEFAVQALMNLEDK", "sequence (Q7RTX7 whole entry)": "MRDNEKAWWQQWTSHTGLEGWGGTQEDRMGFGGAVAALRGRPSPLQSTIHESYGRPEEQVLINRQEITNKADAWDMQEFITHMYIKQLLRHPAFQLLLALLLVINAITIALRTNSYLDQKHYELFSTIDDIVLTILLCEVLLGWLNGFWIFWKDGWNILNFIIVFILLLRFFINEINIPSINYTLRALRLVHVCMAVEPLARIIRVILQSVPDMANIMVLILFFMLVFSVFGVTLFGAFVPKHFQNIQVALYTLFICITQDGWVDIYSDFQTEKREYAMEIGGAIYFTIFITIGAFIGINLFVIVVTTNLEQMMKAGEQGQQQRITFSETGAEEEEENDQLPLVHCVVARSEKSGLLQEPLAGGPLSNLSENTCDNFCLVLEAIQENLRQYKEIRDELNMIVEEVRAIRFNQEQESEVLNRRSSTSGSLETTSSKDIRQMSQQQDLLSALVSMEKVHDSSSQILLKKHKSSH", "assay": "Whole-cell patch-clamp recording of CatSper currents (ICatSper) from human spermatozoa", "type": "cell-based", "experimental": "(§1) All CatSper recordings was performed as described in (Lishko et al., 2013; Lishko et al., 2011). Briefly, gigaohm seal between the patch pipette and human spermatozoon was formed at the cytoplasmic droplet. Spermatozoa were patched either at the cytoplasmic droplet or, if the cytoplasmic droplet was inconspicuous, at the neck region. Seals were formed in high saline (HS) solution containing: 130 mM NaCl, 5 mM KCl, 1 mM MgSO4, 2 mM CaCl2, 5 mM glucose, 1 mM sodium pyruvate, 10 mM lactic acid, 20 mM HEPES, pH 7.4 adjusted with NaOH, 320 mOsm/L. Transition into the whole-cell mode was performed by applying short voltage pulses. Access resistance was 25-40 M. Cells were stimulated every 5 s. Data were sampled at 2-5 kHz and filtered at 1 kHz. Pipettes (11-17 MΩ) for whole-cell patch-clamp recordings of monovalent CatSper currents were filled with (in mM): 130 Cs-methanesulfonate, 70 HEPES, 3 EGTA, 2 EDTA, 0.5 TrisHCl, pH 7.4 adjusted with CsOH. Bath divalent free (DVF) solution for recording of monovalent CatSper currents contained (in mM): 140 Cs-methanesulfonate, 40 HEPES, 1 EDTA, pH 7.4 adjusted with CsOH. HEPES was substituted for MES in the event when acidic extracellular pH was used. HS solution was used to record baseline current while measuring monovalent CatSper currents (Ca^2+ in HS solution inhibits monovalent CatSper currents and causes Ca^2+-dependent inactivation of CatSper channels). Osmolarities of above mentioned solutions were approximately 321 mOsm/L and 335 mOsm/L for bath and pipette solutions, respectively. All electrophysiology experiments were performed at ambient temperature. IcatSper were elicited by voltage ramps from a holding potential of 0 mV. Ramps were applied from −80 mV to +80 mV. Data were analysed with Origin 7.0 and Clampfit 9.2. Statistical data were calculated as the mean±S.E.M., and (n) indicates number of experiments. To determine IcatSper inactivation rate current densities extracted from voltage ramps and acquired at +80 pA were plotted against time. The data were fitted with Boltzmann equation y=1/(1+exp((x−t)/dx)) and mean ti numbers were determined from (n) independent experiments. Statistical significance (t-test) is indicated by (**, p≤0.01 and *, p≤0.05).\n(§2) Data were analyzed with Origin 7.0 and Clampfit 9.2. Statistical data were calculated and represented everywhere in text as the mean±S.E.M., and (n) indicates number of experiments. To determine ICatSper inactivation rate current densities extracted from voltage ramps and acquired at +80 pA were plotted against time. The data were fitted with Boltzmann equation y=1/[1+exp((x−τ)/dx)] and mean τ numbers were determined from (n) independent experiments. Hill equation was used to build dose-response curve: y=Vmax*x^n/(k^n+x^n). where n defines Hill slope factor, k defines IC50, and Vmax is close to 100% inhibition. Statistical significance (t test) is indicated by (****P<0.0001, ***P<0.001, **P<0.005 and *P<0.05)."}, "human CatSper channel [2]": {"system": "human CatSper channel", "assay": "Whole-cell patch-clamp recording of CatSper currents (ICatSper) from human spermatozoa", "type": "cell-based", "conditions": "for activation of CatSper current (ICatSper): whole-cell patch clamp; for effect on P4-dependent activation of CatSper (CatSper P4 sensitivity): human spermatozoa treated with the agent, then P4", "experimental": "as §1, §2"}, "mouse CatSper": {"target": "T1, mouse CatSper (Mus musculus, UniProt A2ARP9+Q80W99+Q8BVN3+Q91ZR5)", "T1 construct": "Mouse spermatozoa were isolated from cauda epididymis; endogenous in cells; host or cells: mouse cauda epididymal spermatozoa", "assay": "Whole-cell patch-clamp recording of ICatSper from mouse spermatozoa", "type": "cell-based"}, "mouse spermatozoa": {"system": "mouse spermatozoa", "assay": "Acrosome exocytosis assessment in live capacitated mouse sperm", "type": "cell-based", "conditions": "3 μM P4, 3 μM AA"}, "ABHD2": {"target": "T2, ABHD2 (Homo sapiens, UniProt P08910)", "T2 construct": "endogenous in cells; host or cells: human spermatozoa", "T2 sequence (P08910 1-425)": "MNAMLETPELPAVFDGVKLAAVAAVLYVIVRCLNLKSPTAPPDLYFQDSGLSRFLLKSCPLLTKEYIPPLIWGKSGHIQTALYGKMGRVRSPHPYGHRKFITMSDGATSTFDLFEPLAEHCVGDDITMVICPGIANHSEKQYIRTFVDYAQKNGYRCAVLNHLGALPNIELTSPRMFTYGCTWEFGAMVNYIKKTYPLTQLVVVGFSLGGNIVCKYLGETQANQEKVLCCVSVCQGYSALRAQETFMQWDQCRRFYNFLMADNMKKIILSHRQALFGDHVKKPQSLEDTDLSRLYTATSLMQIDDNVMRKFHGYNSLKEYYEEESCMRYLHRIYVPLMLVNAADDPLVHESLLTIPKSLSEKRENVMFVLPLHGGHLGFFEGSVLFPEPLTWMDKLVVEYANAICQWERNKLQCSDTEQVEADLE", "assay": "P4* UV cross-linking and streptavidin pull-down from human sperm, ABHD2 western blot", "type": "binding", "conditions": "250 nM P4*", "experimental": "After collection, sperm cells were treated with 0.5 units (U) of PI-PLC ([…]; Life Technologies, Carlsbad, Calif.) and incubated at 37° C. for an hour. […] Lysates were added to streptavidin coated magnetic beads (65001; Life Technologies, Carlsbad, Calif.) on ice for another thirty minutes with gentle agitation. Bound proteins were eluted by boiling in Laemmli Sample Buffer in the presence of beta-mercaptoethanol and subjected to SDS-polyacrylamide gel electrophoresis. […] Bands were excised and subjected to in-gel trypsinization after which peptides were extracted and dried for use in proteomic analysis. Protease inhibitors were used throughout the following procedure. Highly motile sperm swim-up fraction was subjected to osmotic shock by a 5 min incubation in 0.5×HS solution, addition of 10 mM EDTA and 10 mM DTT for 10 min, and sonication in a water bath at 25° C. for 5 min. Osmolarity was adjusted by addition of 10×PBS. 5× Laemmli sample buffer was added to a final 1× concentration and the DTT concentration adjusted to 20 mM. An additional 5 min sonication and boiling at 100° C. for 5 min were performed. Total crude cell lysate was loaded onto a 4-20% gradient Tris-HCl CriterionTM SDS-PAGE gel (BioRad). […] Following transfer to PVDF membranes, blots were blocked in 0.1% PBS-Tween20 with 3% IgG free BSA for 15 min and incubated in primary antibodies overnight at 4° C. […]"}, "human CatSper channel [3]": {"system": "human CatSper channel", "conditions": "shown previously (Lishko et al., 2011); cited from earlier work"}, "[4]": {"conditions": "human spermatozoa, extracellular application"}}, "note": "Entries after “also recorded” stand apart in the source; their conditions may differ. Like-named read-outs stand apart in the source and are kept apart here."}
{"molecule": "CCCCC/C=C\\C/C=C\\C/C=C\\C/C=C\\CCCC(=O)OCC(O)CO", "note": "(centres unmarked) [1-AG, 1-arachidonoylglycerol]", "values": [{"measurement": "percent inhibition of CatSper outward current", "setting": "human CatSper channel [1]", "value": "85.0±0.5", "unit": "%"}, {"measurement": "rate of CatSper inactivation, decline in current amplitude τ", "setting": "human CatSper channel [1]", "value": "2.7 ± 0.2", "unit": "min"}, {"measurement": "effect on nascent/basal CatSper current", "setting": "human CatSper channel [2]", "value": "inhibited ICatSper"}]}
{"molecule": "CCCCC/C=C\\C/C=C\\C/C=C\\C/C=C\\CCCC(=O)OC(CO)CO", "note": "[2-AG, 2-arachidonoylglycerol]", "values": [{"measurement": "inhibition of mouse ICatSper", "setting": "mouse CatSper; compared with human ICatSper", "value": "inhibits mouse ICatSper but with less efficacy than it inhibits human ICatSper"}, {"measurement": "percent inhibition against the outward current", "setting": "mouse CatSper; mouse CatSper, n=5", "value": "73.9±4.4", "unit": "%"}, {"measurement": "inhibition of ICatSper on intracellular application", "setting": "human CatSper channel [1]", "value": "could not mimic this effect"}, {"measurement": "percent inhibition of CatSper outward current", "setting": "human CatSper channel [1]", "value": "92.4±3.5", "unit": "%"}, {"measurement": "rate of CatSper inactivation, decline in current amplitude τ", "setting": "human CatSper channel [1]", "value": "1.6 ± 0.3", "unit": "min"}, {"measurement": "IC50", "setting": "human CatSper channel [1]; read-out: median inhibitory concentration (IC50) of ICatSper, inward currents", "value": 670, "unit": "nM"}, {"measurement": "IC50", "setting": "human CatSper channel [1]; read-out: median inhibitory concentration (IC50) of ICatSper, outward currents", "value": 350, "unit": "nM"}, {"measurement": "effect on nascent/basal CatSper current", "setting": "human CatSper channel [2]", "value": "inhibited ICatSper"}]}
{"molecule": "CC(=O)[C@@]1(O)CC[C@H]2[C@@H]3CCC4=CC(=O)CC[C@]4(C)[C@H]3CC[C@@]21C", "note": "[17-OH—P]", "values": [{"measurement": "activation of CatSper current (ICatSper)", "setting": "human CatSper channel [2]; human spermatozoa", "value": "reversibly activated"}]}
{"molecule": "CCCCC/C=C\\C/C=C\\C/C=C\\C/C=C\\CCCC(=O)O", "note": "[AA, arachidonic acid]", "values": [{"measurement": "stimulation of mouse acrosome reaction (AR)", "setting": "mouse spermatozoa", "value": "stimulate mouse AR to similar levels"}, {"measurement": "regulation of CatSper by arachidonic acid", "setting": "human CatSper channel [2]; ICatSper at +80 mV and −80 mV over time", "value": "Dual Regulator of CatSper"}]}
{"molecule": "CCCCC/C=C\\C/C=C\\C/C=C\\C/C=C\\CCCC(=O)NCCO", "note": "[AEA, anandamide]", "values": [{"measurement": "effect on nascent/basal CatSper current", "setting": "human CatSper channel [2]", "value": "does not change nascent CatSper behaviour; also recorded: had no effect"}]}
{"molecule": "O=C(Nc1ccccc1)N1CCC(Cc2cnc3ccccc3c2)CC1", "note": "[PF750]", "values": [{"measurement": "effect on P4-dependent activation of CatSper (CatSper P4 sensitivity)", "setting": "human CatSper channel [2]", "value": "did not change CatSper sensitivity to P4"}]}
{"molecule": "CCCCC[C@H](O)/C=C/[C@H]1[C@H](O)CC(=O)[C@@H]1CCCCCCC(=O)O", "note": "[PGE1, prostaglandin E1]", "values": [{"measurement": "activation of CatSper current (ICatSper)", "setting": "human CatSper channel [2]; human spermatozoa", "value": "stimulated CatSper activation"}]}
{"molecule": "OCC(O)CO", "note": "[glycerol]", "values": [{"measurement": "effect on P4-dependent activation of CatSper (CatSper P4 sensitivity)", "setting": "human CatSper channel [2]", "value": "did not ablate ICatSper or its regulation by P4"}, {"measurement": "effect on nascent/basal CatSper current", "setting": "human CatSper channel [2]; [4]", "value": "did not ablate ICatSper"}]}
{"molecule": "estrogen", "values": [{"measurement": "ABHD2 in P4* pull-down in the presence of competing steroid", "setting": "ABHD2", "value": "ABHD2 presence in pull-down experiments"}, {"measurement": "interference with P4 activation of CatSper", "setting": "human CatSper channel [3]", "value": "do not interfere with P4 activation of CatSper"}]}
{"molecule": "lysophosphatidylethanolamine [lyso-PE]", "values": [{"measurement": "effect on nascent/basal CatSper current", "setting": "human CatSper channel [2]; [4]", "value": "Neither lysophosphatidylinositol (lyso-PI) nor lysophosphatidylethanolamine (lyso-PE) affected nascent CatSper current"}]}
{"molecule": "lysophosphatidylinositol [lyso-PI]", "values": [{"measurement": "effect on nascent/basal CatSper current", "setting": "human CatSper channel [2]; [4]", "value": "Neither lysophosphatidylinositol (lyso-PI) nor lysophosphatidylethanolamine (lyso-PE) affected nascent CatSper current"}]}
